Measured values as given in patent US12629354B2, “Sustained-release pharmaceutical compositions comprising of a sedative drug and uses thereof” (TAIWAN LIPOSOME CO., LTD., priority 2018, dated 2026).
Counter-ions that a name gives are not always drawn.

Columns and labels:
guinea pigs [1] = experiment: Pharmacodynamic study, pin prick test after intracutaneous injection of 4 formulations; type: in vivo; settings: 1.5 mg ropivacaine with or without 0.2 μg L-DEX in the same injection
Experimental: The guinea pigs were housed in a holding room which operated on a 12-hr light/12-hr dark circadian cycle with free access to water and food.
Four guinea pigs were used in this study and each guinea pig received 4 intracutaneous injections of 4 different formulations on its back to create 4 individual wheals respectively (i.e., 4 wheals per formulation), as illustrated in FIG. 3A. […] Briefly, 339.0 mg of DMPC, 96.7 mg of cholesterol and 200.0 mg of ropivacaine were dissolved in 10 mL of tert-butanol and lyophilized. The lyophilized cake was hydrated with a 50 mM histidine solution, pH 6, to form multilamellar vesicles (MLVs) with entrapped ropivacaine (liposomal ropivacaine composition), and the concentration of ropivacaine was diluted to 15.0 mg/mL with 9.4% sucrose solution. The anesthesia effect of ropivacaine was assessed at 30 minutes (0.5 hour), 1.0, 1.5, 2.0, 2.5, 3.0, 3.5, 4.0, 5.0, 6.0, 7.0, 8.0, 10 and 24 hours post-injection. The anesthetic effect was determined by observing the guinea pig's response to stimuli around individual wheals (pin prick test). PD data obtained from the pin prick tests were analyzed using an inhibitory effect sigmoid Emax model in PKSolver (Comput Methods Programs Biomed. 2010; 99(3):306-314).

guinea pigs [2] = experiment: Pharmacodynamic study, pin prick test with L-DEX or saline injected intramuscularly at a distant site; type: in vivo; settings: 1.5 mg ropivacaine intracutaneous, IM saline or 2.0 μg/kg L-DEX outside the pin prick area
Experimental: Four guinea pigs were used in this study and was divided into two groups (Groups A and B). […] Each guinea pig in Group A and Group B received 4 intracutaneous injections on its back. Of the 4 intracutaneous injections, 2 injections delivered 1.5 mg of free ropivacaine each and the other two injections delivered 1.5 mg of liposomal ropivacaine composition each. The anesthetic effect of ropivacaine was assessed at 30 minutes (0.5 hour), 1.0, 1.5, 2.0, 2.5, 3.0, 3.5, 4.0, 5.0, 6.0, 7.0, 8.0 and 10 hours post-injection. The anesthetic effect was determined by observing the guinea pig's response to stimuli around individual wheals (i.e., pin prick test). PD data obtained from the pin prick tests was analyzed using an inhibitory effect sigmoid Emax model in PKSolver (Comput Methods Programs Biomed. 2010; 99(3):306-314).

[3] = plasma free dialysis bag, within 2 hours
Experimental: Two in vitro release systems were used in the study, the first system was the plasma free environment and the second system was the human plasma environment. […] Each dialysis bag was immersed in 20 mL of PBS at pH 7.4 in a 50-mL centrifuge tube and incubated at 37±1° C. water bath for 168 or 72 hours. At designated time points after incubation (1, 2, 4, 6, 24, 50, 72, 100 and 168 hours of first system and 1, 2, 4, 8, 24, 48 and 72 hours of second system), 1.0 mL aliquot from the 20-mL PBS was sampled and 1.0 mL of fresh PBS was added to replenish the sampling aliquot. Drug concentrations of the sampled aliquots at each time point were analyzed using HPLC to create the in vitro release profile of the tested formulations.

in vivo = settings: rat
Experimental: The rats were housed in a holding room which operated on a 12-hr light/12-hr dark circadian cycle with free access to water and food.
The rats were divided into two groups (n=4 in each group), one group received intramuscular (IM) injection of 100 μg/kg of free dexmedetomidine hydrochloride, prepared by dissolving the dexmedetomidine hydrochloride in 9.4% sucrose solution with a final concentration of 250 μg/mL. The other group received IM injection of 106 μg/kg of liposomal dexmedetomidine hydrochloride, prepared according to Example 1. Blood samples were collected at 15, 30 min, 1, 2, 4, 8, 24, 48, and 72 hours post-injection. Plasma samples were obtained by centrifugation, kept frozen at −80° C. and analyzed using liquid chromatography-tandem mass spectrometry. The plasma concentrations versus time curves were analyzed using a noncompartmental analysis model in PKSolver (Comput. Methods Programs Biomed. 2010; 99(3):306-314).

[4] = female, Sprague-Dawley, im, 100 ug/kg

SMILES | TE50 (time to half maximal effect) (guinea pigs [1]) | Non-response time (guinea pigs [2]) | TE50 (guinea pigs [2]) | dexmedetomidine released [3] | AUC(0-inf) (in vivo; [4]) | AUC(0-t) (in vivo; [4]) | Cmax (in vivo; [4]) | half-life (in vivo; [4]) | dexmedetomidine released as indicated by AUC0-t (in vivo; female, Sprague-Dawley, im, 8 h) | dexmedetomidine in the plasma of rats (in vivo)
CCCN1CCCC[C@H]1C(=O)Nc1c(C)cccc1C [Free Ropivacaine, ropivacaine hydrochloride monohydrate] | 4.5 h | 0.5 h | 1.6 h | – | – | – | – | – | – | –
Cc1cccc([C@H](C)c2cnc[nH]2)c1C [Free Dexmedetomidine, dexmedetomidine hydrochloride] | – | – | – | ~100% | 0.0351 µg·h/mL | 0.0314 µg·h/mL | 0.011 µg/mL | 2.36 h | 100% | undetectable
